ChEMBL document CHEMBL4364276, “Discovery of 4-phenyl-2H-benzo[b][1,4]oxazin-3(4H)-one derivatives as potent and orally active PI3K/mTOR dual inhibitors” (Eur J Med Chem, 2019)

Legend:
[1] = target: Cyclin-dependent kinase 4/cyclin D1 (Homo sapiens) (UniProt P11802+P24385); experiment: Inhibition of human CDK4/cyclin-D1 at 100 nM using RB protein as substrate by [gamma-33P]-ATP assay; assay type: protein-complex assay
[2] = target: Cyclin-dependent kinase 5/CDK5 activator 1 (Homo sapiens) (UniProt Q00535+Q15078); experiment: Inhibition of human CDK5/p35 at 100 nM using histone H1 as substrate by [gamma-33P]-ATP assay; assay type: protein-complex assay
[3] = target: Calcium/calmodulin-dependent protein kinase type 1 (Homo sapiens) (UniProt Q14012); experiment: Inhibition of human CAMK1A at 100 nM using KKALRRQETVDAL as substrate by [gamma-33P]-ATP assay
[4] = target: CDK4/Cyclin D3 (Homo sapiens) (UniProt P11802+P30281); experiment: Inhibition of human CDK4/cyclin-D3 at 100 nM using RB-CTF as substrate by [gamma-33P]-ATP assay; assay type: protein-complex assay
[5] = target: MAP/microtubule affinity-regulating kinase 3 (Homo sapiens) (UniProt P27448); experiment: Inhibition of human MARK3 at 100 nM using KKKVSRSGLYRSPSMPENLNRPR as substrate by [gamma-33P]-ATP assay
MAP/microtubule affinity-regulating kinase 3 (Homo sapiens), sequence (P27448 whole entry, looked up): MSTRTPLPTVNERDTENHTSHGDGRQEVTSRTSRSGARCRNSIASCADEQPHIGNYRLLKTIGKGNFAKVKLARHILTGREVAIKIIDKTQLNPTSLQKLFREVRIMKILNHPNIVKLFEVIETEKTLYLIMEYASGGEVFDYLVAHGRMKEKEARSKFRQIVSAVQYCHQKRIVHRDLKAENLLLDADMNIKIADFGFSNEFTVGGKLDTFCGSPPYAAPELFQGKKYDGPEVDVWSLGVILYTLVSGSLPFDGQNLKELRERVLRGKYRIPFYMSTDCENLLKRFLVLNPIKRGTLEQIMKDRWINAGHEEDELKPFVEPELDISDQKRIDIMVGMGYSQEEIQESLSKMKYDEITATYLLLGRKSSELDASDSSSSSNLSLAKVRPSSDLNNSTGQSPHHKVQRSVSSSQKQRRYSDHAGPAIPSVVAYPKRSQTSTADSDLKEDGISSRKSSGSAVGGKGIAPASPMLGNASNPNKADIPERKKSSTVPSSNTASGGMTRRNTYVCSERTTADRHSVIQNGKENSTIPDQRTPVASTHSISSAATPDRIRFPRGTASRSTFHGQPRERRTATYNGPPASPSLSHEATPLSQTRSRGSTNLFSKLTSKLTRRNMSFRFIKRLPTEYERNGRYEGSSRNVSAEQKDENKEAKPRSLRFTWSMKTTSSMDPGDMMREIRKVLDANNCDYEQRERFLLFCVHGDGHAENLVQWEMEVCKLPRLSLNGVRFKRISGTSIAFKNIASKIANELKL

[6] = target: Serine/threonine-protein kinase ICK (Homo sapiens) (UniProt Q9UPZ9); experiment: Inhibition of human LCK2 at 100 nM using MBP as substrate by [gamma-33P]-ATP assay
[7] = target: Myosin light chain kinase, smooth muscle (Homo sapiens) (UniProt Q15746); experiment: Inhibition of human MLCK at 100 nM using KKLNRTLSFAEPG as substrate by [gamma-33P]-ATP assay
[8] = target: Receptor tyrosine-protein kinase erbB-4 (Homo sapiens) (UniProt Q15303); experiment: Inhibition of human ERBB4 at 100 nM using poly[Glu:Tyr] (4:1) as substrate by [gamma-33P]-ATP assay
[9] = target: Activin receptor type-1-like (Homo sapiens) (UniProt P37023); experiment: Inhibition of human ALK1 at 100 nM using casein as substrate by [gamma-33P]-ATP assay
[10] = target: CDC7/DBF4 (Cell division cycle 7-related protein kinase/Activator of S phase kinase) (Homo sapiens) (UniProt Q9UBU7+O00311); experiment: Inhibition of human CDC7/DBF4 at 100 nM using KTFCGTPEYLAPEVRREPRILSEEEQEMFRDFDYIADWC as substrate by [gamma-33P]-ATP assay; assay type: protein-complex assay
CDC7/DBF4 (Cell division cycle 7-related protein kinase/Activator of S phase kinase) (Homo sapiens), sequence (O00311 whole entry, looked up): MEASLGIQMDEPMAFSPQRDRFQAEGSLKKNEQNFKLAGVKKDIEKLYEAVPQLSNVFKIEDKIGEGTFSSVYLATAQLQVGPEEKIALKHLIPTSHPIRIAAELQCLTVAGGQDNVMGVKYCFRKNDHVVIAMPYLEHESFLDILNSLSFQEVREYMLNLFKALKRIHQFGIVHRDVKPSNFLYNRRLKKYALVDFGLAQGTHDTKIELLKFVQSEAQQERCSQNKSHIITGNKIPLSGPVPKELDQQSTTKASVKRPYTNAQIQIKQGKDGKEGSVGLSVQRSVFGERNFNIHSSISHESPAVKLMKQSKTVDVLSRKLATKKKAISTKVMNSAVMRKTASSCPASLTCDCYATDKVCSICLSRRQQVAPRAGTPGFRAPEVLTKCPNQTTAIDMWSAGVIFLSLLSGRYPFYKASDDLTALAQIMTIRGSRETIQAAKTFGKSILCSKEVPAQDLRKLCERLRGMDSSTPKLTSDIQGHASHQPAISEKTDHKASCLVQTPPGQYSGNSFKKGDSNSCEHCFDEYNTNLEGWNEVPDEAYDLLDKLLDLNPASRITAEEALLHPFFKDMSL
CDC7/DBF4 (Cell division cycle 7-related protein kinase/Activator of S phase kinase) (Homo sapiens), sequence (Q9UBU7 whole entry, looked up): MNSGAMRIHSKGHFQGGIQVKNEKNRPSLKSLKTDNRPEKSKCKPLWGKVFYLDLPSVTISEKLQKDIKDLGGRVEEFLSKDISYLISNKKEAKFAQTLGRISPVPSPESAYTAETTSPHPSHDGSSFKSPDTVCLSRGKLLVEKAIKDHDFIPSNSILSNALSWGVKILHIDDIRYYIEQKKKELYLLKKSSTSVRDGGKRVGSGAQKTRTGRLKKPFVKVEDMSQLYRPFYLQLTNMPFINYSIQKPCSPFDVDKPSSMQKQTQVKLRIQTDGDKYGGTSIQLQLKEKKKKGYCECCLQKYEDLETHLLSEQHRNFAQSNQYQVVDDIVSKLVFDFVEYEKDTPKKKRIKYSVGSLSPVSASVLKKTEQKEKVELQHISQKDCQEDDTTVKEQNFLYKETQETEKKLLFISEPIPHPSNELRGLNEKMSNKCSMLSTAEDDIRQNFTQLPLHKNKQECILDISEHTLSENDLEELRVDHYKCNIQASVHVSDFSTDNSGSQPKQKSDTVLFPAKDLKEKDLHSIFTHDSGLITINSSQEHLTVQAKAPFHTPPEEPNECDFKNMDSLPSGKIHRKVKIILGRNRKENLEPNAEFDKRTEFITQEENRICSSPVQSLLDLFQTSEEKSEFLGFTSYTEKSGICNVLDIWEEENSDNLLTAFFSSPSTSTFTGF

[11] = target: MAP/microtubule affinity-regulating kinase 4 (Homo sapiens) (UniProt Q96L34); experiment: Inhibition of human MARK4 at 100 nM using KKKVSRSGLYRSPSMPENLNRPR as substrate by [gamma-33P]-ATP assay
[12] = target: Ephrin type-A receptor 3 (Homo sapiens) (UniProt P29320); experiment: Inhibition of human EPHA3 at 100 nM using poly[Glu:Tyr] (4:1) as substrate by [gamma-33P]-ATP assay
Ephrin type-A receptor 3 (Homo sapiens), sequence (P29320 whole entry): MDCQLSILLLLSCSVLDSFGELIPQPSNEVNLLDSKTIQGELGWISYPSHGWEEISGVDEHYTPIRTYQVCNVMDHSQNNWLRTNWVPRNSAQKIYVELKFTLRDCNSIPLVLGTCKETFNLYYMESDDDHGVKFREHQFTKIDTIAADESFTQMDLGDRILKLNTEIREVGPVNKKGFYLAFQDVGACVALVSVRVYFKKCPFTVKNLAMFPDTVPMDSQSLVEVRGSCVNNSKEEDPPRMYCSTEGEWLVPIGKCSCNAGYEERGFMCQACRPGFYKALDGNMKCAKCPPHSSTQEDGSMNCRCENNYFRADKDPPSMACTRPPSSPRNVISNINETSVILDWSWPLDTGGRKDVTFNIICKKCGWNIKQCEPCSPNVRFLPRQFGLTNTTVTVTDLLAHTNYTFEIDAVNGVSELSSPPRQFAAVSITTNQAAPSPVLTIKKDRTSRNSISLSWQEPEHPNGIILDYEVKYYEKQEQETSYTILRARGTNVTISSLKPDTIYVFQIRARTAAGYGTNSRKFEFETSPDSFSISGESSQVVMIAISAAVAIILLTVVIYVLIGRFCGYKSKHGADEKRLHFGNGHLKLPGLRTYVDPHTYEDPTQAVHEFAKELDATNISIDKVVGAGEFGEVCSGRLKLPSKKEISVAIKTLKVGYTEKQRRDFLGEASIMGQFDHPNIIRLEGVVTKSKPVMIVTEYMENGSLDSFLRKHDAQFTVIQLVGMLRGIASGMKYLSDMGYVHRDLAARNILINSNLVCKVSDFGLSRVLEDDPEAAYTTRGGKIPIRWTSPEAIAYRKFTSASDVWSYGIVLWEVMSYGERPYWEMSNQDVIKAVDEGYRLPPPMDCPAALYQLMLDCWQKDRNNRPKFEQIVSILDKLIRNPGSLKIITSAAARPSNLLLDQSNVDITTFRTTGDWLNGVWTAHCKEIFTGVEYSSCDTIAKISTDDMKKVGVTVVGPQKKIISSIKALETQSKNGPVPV

[13] = target: Serine/threonine-protein kinase MRCK gamma (Homo sapiens) (UniProt Q6DT37); experiment: Inhibition of human DMPK2 at 100 nM using KKRPQRRYSNVF as substrate by [gamma-33P]-ATP assay
[14] = target: Serine/threonine-protein kinase 16 (Homo sapiens) (UniProt O75716); experiment: Inhibition of human STK16 at 100 nM using MBP as substrate by [gamma-33P]-ATP assay
[15] = target: SNF-related serine/threonine-protein kinase (Homo sapiens) (UniProt Q9NRH2); experiment: Inhibition of human SNRK at 100 nM using MBP as substrate by [gamma-33P]-ATP assay
[16] = target: Discoidin domain-containing receptor 2 (Homo sapiens) (UniProt Q16832); experiment: Inhibition of human DDR2 at 100 nM using KKSRGDYMTMQIG as substrate by [gamma-33P]-ATP assay
[17] = target: Phosphatidylinositol 4,5-bisphosphate 3-kinase catalytic subunit alpha isoform (Homo sapiens, UniProt P42336); experiment: Inhibition of recombinant human full length N-terminal GST-tagged PI3Kalpha (1 to 1068 residues)/PIK3R1 (1 to 724 residues) expressed in baculovirus expression system using PIP2 as substrate incubated for 1 hr by ADP-Glo assay
[18] = target: Dual serine/threonine and tyrosine protein kinase (Homo sapiens) (UniProt Q6XUX3); experiment: Inhibition of human RIPK5 at 100 nM using MBP as substrate by [gamma-33P]-ATP assay
[19] = target: Homeodomain-interacting protein kinase 4 (Homo sapiens) (UniProt Q8NE63); experiment: Inhibition of human HIPK4 at 100 nM using MBP as substrate by [gamma-33P]-ATP assay
[20] = target: cGMP-dependent protein kinase 2 (Homo sapiens) (UniProt Q13237); experiment: Inhibition of human PKG2 at 100 nM using LRRASLG as substrate by [gamma-33P]-ATP assay
cGMP-dependent protein kinase 2 (Homo sapiens), sequence (Q13237 whole entry): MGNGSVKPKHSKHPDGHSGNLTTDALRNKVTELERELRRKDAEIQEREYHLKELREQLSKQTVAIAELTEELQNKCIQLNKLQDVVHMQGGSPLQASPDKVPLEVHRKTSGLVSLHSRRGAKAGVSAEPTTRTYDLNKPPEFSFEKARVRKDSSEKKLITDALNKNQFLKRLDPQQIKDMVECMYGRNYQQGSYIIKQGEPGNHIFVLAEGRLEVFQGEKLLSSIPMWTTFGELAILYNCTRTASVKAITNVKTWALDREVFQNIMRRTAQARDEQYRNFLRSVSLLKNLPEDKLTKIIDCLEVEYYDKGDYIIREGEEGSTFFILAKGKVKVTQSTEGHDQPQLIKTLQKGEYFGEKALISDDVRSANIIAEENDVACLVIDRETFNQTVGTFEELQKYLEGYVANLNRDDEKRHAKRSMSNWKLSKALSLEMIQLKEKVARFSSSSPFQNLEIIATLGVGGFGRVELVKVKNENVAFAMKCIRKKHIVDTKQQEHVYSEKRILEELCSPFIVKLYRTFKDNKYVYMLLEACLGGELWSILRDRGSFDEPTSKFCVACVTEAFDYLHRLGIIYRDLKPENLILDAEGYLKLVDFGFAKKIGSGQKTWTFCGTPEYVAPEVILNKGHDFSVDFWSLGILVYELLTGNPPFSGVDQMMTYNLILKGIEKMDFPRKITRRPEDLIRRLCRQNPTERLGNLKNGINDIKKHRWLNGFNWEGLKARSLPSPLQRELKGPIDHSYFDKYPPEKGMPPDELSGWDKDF

[21] = target: Cyclin-dependent kinase 1/cyclin B1 (Homo sapiens) (UniProt P06493+P14635); experiment: Inhibition of human CDK1/cyclinB at 100 nM using Histone H1 as substrate by [gamma-33P]-ATP assay; assay type: protein-complex assay
[22] = target: Serine/threonine-protein kinase SIK2 (Homo sapiens) (UniProt Q9H0K1); experiment: Inhibition of human SIK2 at 100 nM using AMARAASAAALARRR as substrate by [gamma-33P]-ATP assay
Serine/threonine-protein kinase SIK2 (Homo sapiens), sequence (Q9H0K1 whole entry, looked up, canonical isoform): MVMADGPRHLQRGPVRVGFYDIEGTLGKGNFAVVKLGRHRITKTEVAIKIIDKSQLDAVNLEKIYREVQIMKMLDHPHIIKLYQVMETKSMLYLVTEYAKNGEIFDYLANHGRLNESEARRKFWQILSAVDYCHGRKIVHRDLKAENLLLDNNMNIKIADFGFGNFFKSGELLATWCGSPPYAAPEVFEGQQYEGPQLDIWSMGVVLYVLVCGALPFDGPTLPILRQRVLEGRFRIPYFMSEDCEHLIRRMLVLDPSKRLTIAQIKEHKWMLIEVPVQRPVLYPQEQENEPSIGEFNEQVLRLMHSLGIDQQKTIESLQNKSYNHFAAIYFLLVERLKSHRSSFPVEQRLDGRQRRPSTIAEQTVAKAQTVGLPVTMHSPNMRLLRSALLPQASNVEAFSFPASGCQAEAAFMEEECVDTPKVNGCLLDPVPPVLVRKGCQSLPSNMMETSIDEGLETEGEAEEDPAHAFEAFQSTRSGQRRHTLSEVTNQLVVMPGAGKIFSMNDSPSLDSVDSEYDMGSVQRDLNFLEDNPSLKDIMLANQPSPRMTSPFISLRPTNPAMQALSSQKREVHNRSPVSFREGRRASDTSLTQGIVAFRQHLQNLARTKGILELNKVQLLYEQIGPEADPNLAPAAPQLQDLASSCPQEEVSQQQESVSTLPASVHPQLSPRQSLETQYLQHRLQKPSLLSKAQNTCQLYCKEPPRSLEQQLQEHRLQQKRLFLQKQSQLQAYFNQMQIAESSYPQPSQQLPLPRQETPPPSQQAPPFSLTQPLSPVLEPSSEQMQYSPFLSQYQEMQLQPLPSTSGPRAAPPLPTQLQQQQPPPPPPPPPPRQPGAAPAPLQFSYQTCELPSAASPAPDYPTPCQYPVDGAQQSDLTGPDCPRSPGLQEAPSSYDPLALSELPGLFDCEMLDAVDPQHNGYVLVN

[23] = target: Casein kinase I isoform alpha-like (Homo sapiens) (UniProt Q8N752); experiment: Inhibition of human CK1a1L at 100 nM using KRRRAL[pS]VASLPGL as substrate by [gamma-33P]-ATP assay
Casein kinase I isoform alpha-like (Homo sapiens), sequence (Q8N752 whole entry, canonical isoform): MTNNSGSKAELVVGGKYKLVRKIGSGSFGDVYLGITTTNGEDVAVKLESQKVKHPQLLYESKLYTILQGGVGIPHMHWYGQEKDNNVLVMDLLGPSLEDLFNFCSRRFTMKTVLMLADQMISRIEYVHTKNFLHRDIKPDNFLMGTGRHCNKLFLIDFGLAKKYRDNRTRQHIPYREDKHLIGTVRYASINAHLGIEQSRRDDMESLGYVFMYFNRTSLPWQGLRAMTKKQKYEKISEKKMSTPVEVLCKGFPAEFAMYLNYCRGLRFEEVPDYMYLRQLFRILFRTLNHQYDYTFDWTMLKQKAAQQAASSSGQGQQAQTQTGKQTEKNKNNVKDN

[24] = target: Dual specificity tyrosine-phosphorylation-regulated kinase 1A (Homo sapiens) (UniProt Q13627); experiment: Inhibition of human DYRK1A at 100 nM using RRRFRPASPLRGPPK as substrate by [gamma-33P]-ATP assay
[25] = target: Protein kinase C epsilon type (Homo sapiens) (UniProt Q02156); experiment: Inhibition of human PKCepsilon at 100 nM using ERMRPRKRQGSVRRRV as substrate by [gamma-33P]-ATP assay
[26] = target: Proto-oncogene tyrosine-protein kinase Src (Homo sapiens) (UniProt P12931); experiment: Inhibition of human c-SRC at 100 nM using poly[Glu:Tyr] (4:1) as substrate by [gamma-33P]-ATP assay
HeLa = experiment: Antitumor activity against human HeLa cells xenografted in BALB/c nude mouse assessed as tumor growth inhibition at 20 mg/kg, ig administered for 30 days measured every 3 days during compound dosing relative to control; assay type: functional; conditions: po, read-out: TGI
[27] = target: Misshapen-like kinase 1 (Homo sapiens) (UniProt Q8N4C8); experiment: Inhibition of human MINK1 at 100 nM using MBP as substrate by [gamma-33P]-ATP assay
[28] = target: Insulin receptor-related protein (Homo sapiens) (UniProt P14616); experiment: Inhibition of human IRR at 100 nM using MBP as substrate by [gamma-33P]-ATP assay

SMILES: COc1ccc(N2C(=O)COc3ccc(-c4cnc(OC)c(NS(=O)(=O)c5ccc(F)cc5)c4)cc32)cc1
- inhibition [1]: 0.16%
- inhibition [2]: 8.65%
- inhibition [3]: 1.42%
- inhibition [4]: -5.7%
- inhibition [5]: -2.27%
- inhibition [6]: 7.92%
- inhibition [7]: 7.23%
- inhibition [8]: -0.06%
- inhibition [9]: -8.35%
- inhibition [10]: 8.12%
- inhibition [11]: 1.56%
- inhibition [12]: 20.6%
- inhibition [13]: -9.5%
- inhibition [14]: -2.3%
- inhibition [15]: 17.7%
- inhibition [16]: -1.84%
- IC50 [17]: 0.63 nM
- inhibition [18]: 9.57%
- inhibition [19]: 5.1%
- inhibition [20]: 1.95%
- inhibition [21]: -2.84%
- inhibition [22]: -3.42%
- inhibition [23]: -6.28%
- inhibition [24]: 5.57%
- inhibition [25]: 3.65%
- inhibition [26]: 6.76%
- inhibition in vivo at 20 mg/kg (HeLa): 66.6%
- inhibition [27]: 9.96%
- inhibition [28]: 14.4%
